Reference: patent US9856220B2 (AbbVie Deutschland GmbH & Co. KG, priority 2011, dated 2018)

Legend:
PDE10A = PDE10A (Homo sapiens (Human), UniProt Q9Y233); test: Measurement of PDE activity (recombinant PDE, cAMP HTRF); type: biochemical; conditions: 20 nM cyclic nucleotide substrate, 60 minutes at 29 C
Procedure, shortened: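 Recombinant human PDE10A in 20 mM Tris-HCl pH 7.5, 10 mM MgCl2, 0.1% BSA with 20 nM cyclic nucleotide substrate; reaction 60 min at 29 C after compound preincubation with enzyme. Residual cAMP detected by HTRF (cAMP-d2/anti-cAMP cryptate); IC50 from inhibitor concentration versus PDE activity.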

[1] = Determination of the microsomal half-life / microsomal clearance, rat liver microsomes; type: in vitro ADME; conditions: 0.5 μM test substance, 0.25 mg of microsomal protein/ml, pH 7.4, 37° C.
Procedure: (§1) b) Determination of the Microsomal Half-Life:
(§2) The metabolic stability of the compounds of the invention was determined in the following assay.
(§3) The test substances were incubated in a concentration of 0.5 μM as follows:
(§4) 0.5 μM test substance are preincubated together with liver microsomes from different species (from rat, human or other species) (0.25 mg of microsomal protein/ml) in 0.05 M potassium phosphate buffer of pH 7.4 in microtiter plates at 37° C. for 5 min. The reaction is started by adding NADPH (1 mg/mL). After 0, 5, 10, 15, 20 and 30 min, 50 μl aliquots are removed, and the reaction is immediately stopped and cooled with the same volume of acetonitrile. The samples are frozen until analyzed. The remaining concentration of undegraded test substance is determined by MSMS. The half-life (T½) is determined from the gradient of the signal of test substance/unit time plot, it being possible to calculate the half-life of the test substance, assuming first order kinetics, from the decrease in the concentration of the compound with time. The microsomal clearance (mCl) is calculated from mCl=ln 2/T½/(content of microsomal protein in mg/ml)×1000 [ml/min/mg]

[2] = Determination of the microsomal half-life / microsomal clearance, human liver microsomes; type: in vitro ADME; conditions: 0.5 μM test substance, 0.25 mg of microsomal protein/ml, pH 7.4, 37° C.
Procedure: as §1, §2, §3, §4

Chain of PDE10A (Q9Y233 whole entry, species assumed): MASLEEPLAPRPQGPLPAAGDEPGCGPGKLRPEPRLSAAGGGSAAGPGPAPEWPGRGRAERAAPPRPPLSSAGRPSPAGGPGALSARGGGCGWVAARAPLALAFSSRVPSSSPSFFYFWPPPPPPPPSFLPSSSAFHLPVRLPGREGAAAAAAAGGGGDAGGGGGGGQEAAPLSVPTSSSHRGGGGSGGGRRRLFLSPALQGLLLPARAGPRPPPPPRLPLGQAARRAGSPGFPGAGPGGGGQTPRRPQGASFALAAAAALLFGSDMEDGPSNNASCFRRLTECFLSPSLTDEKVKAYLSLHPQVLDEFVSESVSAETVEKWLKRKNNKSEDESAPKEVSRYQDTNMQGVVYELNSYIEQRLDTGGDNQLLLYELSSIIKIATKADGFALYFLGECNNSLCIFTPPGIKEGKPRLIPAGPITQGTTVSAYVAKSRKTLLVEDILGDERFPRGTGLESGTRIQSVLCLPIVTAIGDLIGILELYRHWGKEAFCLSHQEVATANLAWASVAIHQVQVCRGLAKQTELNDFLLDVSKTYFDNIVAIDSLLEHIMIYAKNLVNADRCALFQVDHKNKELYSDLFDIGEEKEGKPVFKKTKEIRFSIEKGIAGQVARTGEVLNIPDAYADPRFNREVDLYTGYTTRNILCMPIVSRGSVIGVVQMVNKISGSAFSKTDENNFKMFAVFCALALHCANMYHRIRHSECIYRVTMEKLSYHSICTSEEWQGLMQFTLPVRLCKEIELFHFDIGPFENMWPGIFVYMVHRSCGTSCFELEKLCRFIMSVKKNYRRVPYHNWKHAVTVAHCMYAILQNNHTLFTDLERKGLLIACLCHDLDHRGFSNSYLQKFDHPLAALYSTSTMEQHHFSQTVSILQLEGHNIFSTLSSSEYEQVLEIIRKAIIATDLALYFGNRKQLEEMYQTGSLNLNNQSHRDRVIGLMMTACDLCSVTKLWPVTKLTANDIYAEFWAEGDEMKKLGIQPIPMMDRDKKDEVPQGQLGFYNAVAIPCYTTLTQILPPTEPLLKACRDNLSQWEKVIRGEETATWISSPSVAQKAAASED

SMILES | IC50 (PDE10A) [nM] | Rat mCl [1] | Human mCl [2]
CCCCNC(=O)c1cn(CC)c(=O)c2cc(OC)c(OCCc3ccc4ccccc4n3)cc12 [Example 136, 2-Ethyl-7-methoxy-1-oxo-6-(2-quinolin-2-yl-ethoxy)-1,2-dihydro-isoquinoline-4-carboxylic acid butylamide] | < 100 | ∘ (>220 μl min^−1 mg^−1) | + (100-220 μl min^−1 mg^−1)
CCn1cc(C(=O)Nc2ccc(N3CCOCC3)cc2)c2cc(OC)c(OC)cc2c1=O [Example 141, 2-Ethyl-6,7-dimethoxy-N-(4-morpholinophenyl)-1-oxo-1,2-dihydroisoquinoline-4-carboxamide] | 100 to 200 | ++ (<100 μl min^−1 mg^−1) | ++ (<100 μl min^−1 mg^−1)
CCn1cc(C(=O)Nc2cccc(OC)c2)c2cc(OC)c(OC)cc2c1=O [Example 147, 2-Ethyl-6,7-dimethoxy-N-(3-methoxyphenyl)-1-oxo-1,2-dihydroisoquinoline-4-carboxamide] | 100 to 200 | ++ (<100 μl min^−1 mg^−1) | ++ (<100 μl min^−1 mg^−1)
CCn1cc(C(=O)N[C@H](C)c2ccc(C)cc2)c2cc(OC)c(OC)cc2c1=O [Example 314, 2-Ethyl-6,7-dimethoxy-1-oxo-N-[(1R)-1-(p-tolyl)ethyl]isoquinoline-4-carboxamide] |  | ++ (<100 μl min^−1 mg^−1) | ++ (<100 μl min^−1 mg^−1)
CCn1cc(C(=O)NCc2ccc(C(F)F)cc2)c2cc(OC)c(OC)cc2c1=O [Example 315, N-[[4-(Difluoromethyl)phenyl]methyl]-2-ethyl-6,7-dimethoxy-1-oxo-isoquinoline-4-carboxamide] |  | ++ (<100 μl min^−1 mg^−1) | ++ (<100 μl min^−1 mg^−1)

Results, then the compound that gave them:

IC50 (PDE10A) [nM] | Rat mCl [1] | Human mCl [2] | SMILES
200 to 500 | ++ (<100 μl min^−1 mg^−1) | ++ (<100 μl min^−1 mg^−1) | CCC(CC)n1cc(C(=O)NC2CCc3ncccc32)c2cc(OC)c(OC)cc2c1=O (single isomer, unassigned; (+)) [Example 199, (+)-2-(1-Ethyl-propyl)-6,7-dimethoxy-1-oxo-1,2-dihydro-isoquinoline-4-carboxylic acid (6,7-dihydro-5H-[1]pyrindin-5-yl)-amide]
200 to 500 | ++ (<100 μl min^−1 mg^−1) | ++ (<100 μl min^−1 mg^−1) | CCC(CC)n1cc(C(=O)NC2CCc3ncccc32)c2cc(OC)c(OC)cc2c1=O (single isomer, unassigned; (-)) [Example 200, (−)-2-(1-Ethyl-propyl)-6,7-dimethoxy-1-oxo-1,2-dihydro-isoquinoline-4-carboxylic acid (6,7-dihydro-5H-[1]pyrindin-5-yl)-amide]
200 to 500 | ++ (<100 μl min^−1 mg^−1) | ++ (<100 μl min^−1 mg^−1) | CCn1cc(C(=O)NC2CCc3sccc32)c2cc(OC)c(OC)cc2c1=O (single isomer, unassigned; (-)) [Example 205, (−)-2-Ethyl-6,7-dimethoxy-1-oxo-1,2-dihydro-isoquinoline-4-carboxylic acid (5,6-dihydro-4H-cyclopenta[b]thiophen-4-yl)-amide]
100 to 200 | ++ (<100 μl min^−1 mg^−1) | ++ (<100 μl min^−1 mg^−1) | CCn1cc(C(=O)NC2CCc3ccccc32)c2cc(OC)c(OC)cc2c1=O (stereo not shown) [Example 40, 2-Ethyl-6,7-dimethoxy-1-oxo-1,2-dihydro-isoquinoline-4-carboxylic acid indan-1-ylamide]
100 to 200 | ++ (<100 μl min^−1 mg^−1) | ++ (<100 μl min^−1 mg^−1) | CCn1cc(C(=O)Nc2ccc(C)cc2)c2cc(OC)c(OC)cc2c1=O [Example 158, 2-Ethyl-6,7-dimethoxy-1-oxo-N-p-tolyl-1,2-dihydroisoquinoline-4-carboxamide]
< 100 | ++ (<100 μl min^−1 mg^−1) | ++ (<100 μl min^−1 mg^−1) | CCn1cc(C(=O)NCc2ccc(C)cc2)c2cc(OC)c(OC)cc2c1=O [Example 161, 2-Ethyl-6,7-dimethoxy-N-(4-methylbenzyl)-1-oxo-1,2-dihydroisoquinoline-4-carboxamide]
